Test results taken from PMC10818821, “Towards a New Generation of Hormone Therapies: Design, Synthesis and Biological Evaluation of Novel 1,2,3-Triazoles as Estrogen-Positive Breast Cancer Therapeutics and Non-Steroidal Aromatase Inhibitors” (Pharmaceuticals, 2024).

The compounds below were run against T1, aromatase (CYP19) (Homo sapiens, UniProt P11511) (assay: fluorogenic aromatase activity assay (Abcam kit), dose-response […]).
T1 construct: gene CYP19A1
T1 sequence (P11511 1-503): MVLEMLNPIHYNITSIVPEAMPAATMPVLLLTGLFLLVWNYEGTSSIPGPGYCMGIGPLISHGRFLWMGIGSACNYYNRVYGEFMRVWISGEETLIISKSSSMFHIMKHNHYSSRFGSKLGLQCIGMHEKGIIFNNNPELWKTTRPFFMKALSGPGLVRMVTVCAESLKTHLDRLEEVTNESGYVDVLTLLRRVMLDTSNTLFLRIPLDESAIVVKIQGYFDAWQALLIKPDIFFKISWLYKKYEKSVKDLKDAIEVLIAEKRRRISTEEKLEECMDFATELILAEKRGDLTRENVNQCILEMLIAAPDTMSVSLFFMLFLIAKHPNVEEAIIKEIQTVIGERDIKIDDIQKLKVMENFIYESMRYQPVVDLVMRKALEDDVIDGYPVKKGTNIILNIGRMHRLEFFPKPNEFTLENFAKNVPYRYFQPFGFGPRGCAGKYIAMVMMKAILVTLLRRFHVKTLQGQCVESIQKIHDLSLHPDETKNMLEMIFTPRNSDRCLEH
Type: biochemical

| SMILES | IC50 |
| --- | --- |
| CCOC(=O)c1nn(-c2ccc(C)cc2)c(=NN=C(C)c2nnn(-c3ccc(OC)cc3)c2C)s1 [compound 7, Ethyl 5-((1-(1-(4-Methoxyphenyl)-5-methyl-1H-1,2,3-triazol-4-yl)ethylidene) hydrazono)-4-(p-tolyl)-4,5-dihydro-1,3,4-thiadiazole-2-carboxylate] | 2.99 µM |
| CCOC(=O)c1nn(-c2ccccc2)c(=NN=C(C)c2nnn(-c3ccc(OC)cc3)c2C)s1 [compound 6, Ethyl 5-((1-(1-(4-Methoxyphenyl)-5-methyl-1H-1,2,3-triazol-4-yl)ethylidene)hydrazono)-4-phenyl-4,5-dihydro-1,3,4-thiadiazole-2-carboxylate] | 3.57 µM |
| COc1ccc(-n2nnc(C(C)=NN=c3sc(C(C)=O)nn3-c3ccc(C)cc3)c2C)cc1 [compound 5, 1-(5-((1-(1-(4-Methoxyphenyl)-5-methyl-1H-1,2,3-triazol-4-yl)ethylidene)hydrazono)-4-(p-tolyl)-4,5-dihydro-1,3,4-thiadiazol-2-yl)ethan-1-one] | 1.99 µM |
| COc1ccc(-n2nnc(C(C)=NN=c3sc(C(C)=O)nn3-c3ccccc3)c2C)cc1 [compound 4, 1-(5-((1-(1-(4-Methoxyphenyl)-5-methyl-1H-1,2,3-triazol-4-yl)ethylidene)hydrazono)-4-phenyl-4,5-dihydro-1,3,4-thiadiazol-2-yl)ethan-1-one] | 3.62 µM |
